pKi: −log10 of the molar value.
Molecular target: T1, integrins haα4 and β1 (VLA-4) expressed on CHO cells (Homo sapiens, UniProt P05556+P13612)
T1 construct: expressed in transfected cells; host or cells: CHO cells
Experiment: In vitro Evaluation Test (1): binding of Eu3+-hVCAM-1 D1D7-IgG to CHO cells expressing integrins α4 and β1
Conditions: inhibition of Eu3+-hVCAM-1 D1D7-IgG binding to CHO cells expressing α4β1; Ki calculated from IC50
Method: CHO cells forcedly expressed by the transduction of integrins haα4 and β1 were seeded in a Coster 3599 plate (3×10^4 cells/100 μl/well) and they were cultured for 2 days. After the medium was washed with buffer A* twice, 50 μl/well of Eu^3+-hVCAM-1 D1D7-IgG diluted to […] with an assay buffer ** was added. To the resulting well was added 50 μl/well of a test compound diluted with 2% DMS0-assay buffer (in the presence or absence of 6% human serum albumin) (to a well subjected to Scatchard analysis was added a solution diluted in another manner). After stirring for 5 minutes on a plate mixer, the plate was allowed to stand at room temperature for 1 hour. Then, the plate was washed four times with the buffer A and added with 100 μl/well of an enhancement reagent (DELFIA). The plate was shaken for 5 minutes on a plate mixer, followed by measurement of fluorescence intensity by a time-resolved fluorometer (DELFIA Wallac). From the binding ratio available by the following calculation formula: ((FT−FNS)−(FI−FNS))/(FT−FNS)×100, the IC50 (concentration inhibiting 50% of binding of CHO cells with hVCAM-1 D1D7-IgG) of the test compound was determined. In the above formula, FT means the fluorescence intensity of the well free of the test compound, FNS means the fluorescence intensity of the well free of the test compound and anti-hα4 antibody (SG/73), and FI means the fluorescence intensity of the well containing the test compound. The Kd indicating the binding strength and Bmax (maximum binding) were estimated within a range of 0.06 to 20 nM in accordance with the Scatchard analysis method.
The value Ki was calculated based on:
[formula] ((L) means a ligand concentration). (* buffer A: 25 mM HEPES (pH 7.5), 150 mM NaCl, 1 mM Ca^2+, 1 MM Mg^2+, 4 mM Mn^2+; ** assay buffer: 25 mM HEPES (pH 7.5), 150 mM NaCl, 1 mM Ca^2+, 1 mM Mg^2+, 4 mM Mn^2+, 0.1% BSA, 20 μM DTPA, with/without 6% ALBUMIN, HUMAN SERUM (C/N A-1653, SIGMA)) In vitro Evaluation Test (2)

T1 sequence (P13612 34-1032): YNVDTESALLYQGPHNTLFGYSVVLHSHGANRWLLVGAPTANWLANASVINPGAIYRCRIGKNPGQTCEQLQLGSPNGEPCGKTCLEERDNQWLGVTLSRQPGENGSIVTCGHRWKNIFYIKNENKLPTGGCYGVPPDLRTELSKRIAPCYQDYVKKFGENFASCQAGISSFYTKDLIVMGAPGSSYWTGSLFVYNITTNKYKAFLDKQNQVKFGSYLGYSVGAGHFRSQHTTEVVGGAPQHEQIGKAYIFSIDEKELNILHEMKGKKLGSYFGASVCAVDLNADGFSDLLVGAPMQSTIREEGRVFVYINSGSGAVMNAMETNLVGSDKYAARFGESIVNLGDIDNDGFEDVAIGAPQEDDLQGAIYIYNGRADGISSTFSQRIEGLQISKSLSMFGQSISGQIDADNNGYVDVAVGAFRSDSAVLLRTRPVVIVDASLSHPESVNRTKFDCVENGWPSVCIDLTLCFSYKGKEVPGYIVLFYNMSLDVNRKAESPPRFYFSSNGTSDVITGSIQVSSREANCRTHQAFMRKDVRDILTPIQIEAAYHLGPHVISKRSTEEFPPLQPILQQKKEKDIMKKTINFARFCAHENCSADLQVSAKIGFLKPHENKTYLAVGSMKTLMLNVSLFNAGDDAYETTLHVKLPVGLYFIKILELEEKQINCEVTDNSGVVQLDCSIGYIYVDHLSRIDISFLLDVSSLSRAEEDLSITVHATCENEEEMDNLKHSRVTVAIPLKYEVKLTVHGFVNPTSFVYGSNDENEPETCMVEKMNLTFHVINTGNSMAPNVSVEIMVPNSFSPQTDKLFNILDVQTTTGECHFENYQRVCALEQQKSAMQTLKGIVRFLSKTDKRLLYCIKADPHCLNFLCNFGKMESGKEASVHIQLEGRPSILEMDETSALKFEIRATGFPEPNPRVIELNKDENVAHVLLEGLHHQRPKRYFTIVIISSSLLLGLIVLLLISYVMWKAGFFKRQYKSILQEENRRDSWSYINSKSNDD
T1 sequence (P05556 21-798): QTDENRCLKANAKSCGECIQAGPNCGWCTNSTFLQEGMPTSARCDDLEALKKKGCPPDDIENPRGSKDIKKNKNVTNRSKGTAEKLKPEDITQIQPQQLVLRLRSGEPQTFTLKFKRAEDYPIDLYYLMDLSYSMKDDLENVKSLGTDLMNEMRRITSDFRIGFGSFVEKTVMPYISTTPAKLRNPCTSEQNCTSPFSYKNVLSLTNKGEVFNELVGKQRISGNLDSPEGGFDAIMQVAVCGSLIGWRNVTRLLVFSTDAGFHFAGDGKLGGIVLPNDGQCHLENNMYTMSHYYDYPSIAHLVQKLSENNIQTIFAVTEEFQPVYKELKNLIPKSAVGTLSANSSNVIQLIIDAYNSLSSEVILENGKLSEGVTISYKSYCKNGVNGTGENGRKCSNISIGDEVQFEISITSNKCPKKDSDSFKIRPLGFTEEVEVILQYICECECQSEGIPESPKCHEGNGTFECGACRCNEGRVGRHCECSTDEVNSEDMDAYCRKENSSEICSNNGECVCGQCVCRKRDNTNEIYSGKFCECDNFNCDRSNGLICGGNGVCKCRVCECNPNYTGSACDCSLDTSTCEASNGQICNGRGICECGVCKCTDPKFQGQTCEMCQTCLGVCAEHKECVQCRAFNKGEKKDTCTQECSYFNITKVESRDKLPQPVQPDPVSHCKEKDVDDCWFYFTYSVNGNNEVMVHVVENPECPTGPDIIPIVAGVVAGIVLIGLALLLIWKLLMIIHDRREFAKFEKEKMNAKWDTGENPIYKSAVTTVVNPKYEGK

| pKi | Compound |
| --- | --- |
| 7.52 | O=C(O)c1ccc(OC[C@@H]2C[C@H](F)CN2C(=O)Cc2ccc3nc(Nc4ccccc4)oc3c2)cc1 [Example 1] |
| 7.77 | Cc1ccccc1Nc1nc2ccc(CC(=O)N3C[C@@H](F)C[C@H]3COc3ccc(C(=O)O)cc3)cc2o1 [Example 2, 4-((4S)-Fluoro-1-(2-(2-methylphenylamino)-6-benzoxazolylacetyl)-(2S)-pyrrolidinylmethoxy)benzoic acid] |
| 7.40 | COc1cc(CC(=O)N2C[C@@H](F)C[C@H]2COc2ccc(C(=O)O)cc2)cc2oc(Nc3ccccc3C)nc12 [Example 3, 4-((4S)-Fluoro-1-(4-methoxy-2-(2-methylphenylamino)-6-benzoxazolylacetyl)-(2S)-pyrrolidinylmethoxy)benzoic acid] |
| 7.85 | Cc1ccccc1Nc1nc2ccc(CC(=O)N3C[C@@H](F)C[C@H]3COc3ccc(C(=O)O)cc3)c(F)c2o1 [Example 6, 4-((2S,4S)-1-(7-Fluoro-2-(2-methylphenylamino)-6-benzoxazolylacetyl)-4-fluoro-2-pyrrolidinylmethoxy)benzoic acid] |
| 8.15 | Cc1ccccc1Nc1nc2ccc(CC(=O)N3C[C@@H](N(C)C)C[C@H]3COc3ccc(C(=O)O)cc3)cc2o1 [Example 7, 4-((4S)-Dimethylamino-1-(2-(2-methylphenylamino)-6-benzoxazolylacetyl)-(2S)-pyrrolidinylmethoxy)benzoic acid] |
| 7.62 | Cc1ccccc1Nc1nc2ccc(CC(=O)N3C[C@@H](O)C[C@H]3COc3ccc(C(=O)O)cc3)cc2o1 [Example 8, 4-((2S,4S)-4-Hydroxy-1-(2-(2-methylphenylamino)-6-benzoxazolylacetyl)-2-pyrrolidinylmethoxy)benzoic acid] |
| 8.66 | O=C(O)c1ccc(OC[C@@H]2C[C@H](F)CN2C(=O)Cc2ccc(NC(=O)c3c[nH]c4ccccc34)c(Cl)c2)cc1 [Example 15, 4-(1-(3-Chloro-4-(3-indolylcarbonylamino)phenylacetyl)-(4S)-fluoro-(2S)-pyrrolidinylmethoxy)benzoic acid] |
| 8.11 | Cc1ccccc1Nc1nc2ccc(CC(=O)N3C[C@@H](F)C[C@H]3COc3ccc(C(=O)O)cn3)cc2o1 [Example 18, 6-((4S)-Fluoro-1-(2-(2-methylphenylamino)-6-benzoxazolylacetyl)-(2S)-pyrrolidinylmethoxy)nicotinic acid] |
| 7.51 | Cc1ccccc1Nc1nc2ccc(CC(=O)N3C[C@@H](F)C[C@H]3CNc3ccc(C(=O)O)cc3)cc2o1 [Example 33, 4-(1-(2-(2-Methylphenylamino)-6-benzoxazolylacetyl)-(4S)-fluoro-(2S)-pyrrolidinylmethylamino)benzoic acid] |
| 7.59 | Cc1ccccc1Nc1nc2ccc(CC(=O)N3CC[C@@H](Oc4ccc(C(=O)O)cc4)C3)cc2o1 [Example 34, 4-(1-(2-(2-Methylphenylamino)-6-benzoxazolylacetyl)-(3R)-pyrrolidinyloxy)benzoic acid] |

More lines, now with the values behind:

| Compound | pKi |
| --- | --- |
| Cn1cc(C(=O)Nc2cc(F)c(CC(=O)N3CC(F)(F)C[C@H]3CO[C@H]3CC[C@H](C(=O)O)CC3)cc2Cl)c2ccccc21 (mixture of isomers) [Example 143, trans-4-(1-(5-Chloro-2-fluoro-4-(1-methyl-3-indolylcarbonylamino)phenylacetyl)-4,4-difluoro-(2S)-pyrrolidinylmethoxy)cyclohexanecarboxylic acid and cis-4-(1-(5-chloro-2-fluoro-4-(1-methyl-3-indolylcarbonylamino)phenylacetyl)-4,4-difluoro-(2S)-pyrrolidinylmethoxy)cyclohexanecarboxylic acid] | 7.77 |
| Cn1cc(-c2nc3ccc(CC(=O)N4C[C@@H](F)C[C@H]4CO[C@H]4CC[C@H](C(=O)O)CC4)c(F)c3o2)c2cc(F)ccc21 (relative stereo) [Example 101, trans-4-(1-((2-(5-Fluoro-1-methyl-3-indolyl)-7-fluoro-6-benzoxazolyl)acetyl)-(4S)-fluoro-(2S)-pyrrolidinylmethoxy)cyclohexanecarboxylic acid] | 8.09 |
| CO[C@H]1C[C@@H](CO[C@H]2CC[C@H](C(=O)O)CC2)N(C(=O)Cc2ccc3nc(Nc4ccccc4Cl)oc3c2F)C1 (relative stereo) [Example 114, trans-4-(1-((2-(2-chlorophenylamino)-7-fluoro-6-benzoxazolyl)acetyl)-(4S)-methoxy-(2S)-pyrrolidinylmethoxy)cyclohexanecarboxylic acid] | 8.32 |
| Cc1ccccc1Nc1nc2ccc(CC(=O)N3C[C@@H](F)C[C@H]3COC3CCC(C(=O)O)CC3)cc2o1 (single isomer, unassigned) [21 (Isomer G)] | 6.42 |
| Cc1ccccc1Nc1nc2ccc(CC(=O)N3CCC[C@H]3COC3CCC(C(=O)O)CC3)cc2o1 (single isomer, unassigned) [22 (Isomer B)] | 8.46 |
| Cc1ccccc1Nc1nc2ccc(CC(=O)N3C[C@@H](F)C[C@H]3COC3CCC(C(=O)O)CC3)c(F)c2o1 (single isomer, unassigned) [26 (Isomer A)] | 8.70 |
| Cc1ccccc1Nc1nc2ccc(CC(=O)N3C[C@@H](F)C[C@H]3C(=O)N3CCN(CC(=O)O)CC3)cc2o1 [Example 30, 4-((4S)-Fluoro-1-(2-(2-methylphenylamino)-6-benzoxazolylacetyl)-(2S)-pyrrolidinylcarbonyl)-1-piperazinylacetic acid] | 7.40 |
| Cc1ccccc1Nc1nc2ccc(CC(=O)N3C[C@@H](F)C[C@H]3C(=O)N3CCC(CC(=O)O)CC3)cc2o1 [Example 31, 1-((4S)-Fluoro-1-(2-(2-methylphenylamino)-6-benzoxazolylacetyl)-(2S)-pyrrolidinylcarbonyl)-4-piperidinylacetic acid] | 7.80 |
| O=C(Nc1ccc(CC(=O)N2C[C@@H](F)C[C@H]2COC2CCC(C(=O)O)CC2)cc1Cl)c1c[nH]c2ccccc12 (stereo partly drawn) [Example 38, 4-(1-(3-Chloro-4-(3-indolylcarbonylamino)phenylacetyl)-(4S)-fluoro-(2S)-pyrrolidinylmethoxy)cyclohexanecarboxylic acid] | 9.37 |
| Cn1cc(-c2nc3ccc(CC(=O)N4C[C@@H](F)C[C@H]4COC4CCC(C(=O)O)CC4)cc3o2)c2ccccc21 (stereo partly drawn) [Example 40, 4-((4S)-Fluoro-1-(2-(1-methyl-3-indolyl)-6-benzoxazolylacetyl)-(2S)-pyrrolidinylmethoxy)cyclohexanecarboxylic acid] | 8.72 |
| Cc1ccc(F)cc1Nc1nc2ccc(CC(=O)N3C[C@@H](F)C[C@H]3CO[C@H]3CC[C@H](C(=O)O)CC3)cc2o1 [Example 41, trans-4-(1-((2-(5-Fluoro-2-methylphenylamino)-6-benzoxazolyl)acetyl)-(4S)-fluoro-(2S)-pyrrolidinylmethoxy)cyclohexanecarboxylic acid] | 8.42 |
| Cc1cc(F)ccc1Nc1nc2ccc(CC(=O)N3C[C@@H](F)C[C@H]3CO[C@H]3CC[C@H](C(=O)O)CC3)c(F)c2o1 [Example 45, trans-4-(1-((2-(4-Fluoro-2-methylphenylamino)-7-fluoro-6-benzoxazolyl)acetyl)-(4S)-fluoro-(2S)-pyrrolidinylmethoxy)cyclohexanecarboxylic acid] | 8.06 |
| Cc1c(F)cccc1Nc1nc2ccc(CC(=O)N3C[C@@H](F)C[C@H]3CO[C@H]3CC[C@H](C(=O)O)CC3)c(F)c2o1 [Example 46, trans-4-(1-((2-(3-fluoro-2-methylphenylamino)-7-fluoro-6-benzoxazolyl)acetyl)-(4S)-fluoro-(2S)-pyrrolidinylmethoxy)cyclohexanecarboxylic acid] | 7.43 |
| Cc1ccc(F)cc1Nc1nc2c(F)cc(CC(=O)N3C[C@@H](F)C[C@H]3CO[C@H]3CC[C@H](C(=O)O)CC3)cc2o1 [Example 47, trans-4-(1-((2-(5-Fluoro-2-methylphenylamino)-4-fluoro-6-benzoxazolyl)acetyl)-(4S)-fluoro-(2S)-pyrrolidinylmethoxy)cyclohexanecarboxylic acid] | 8.24 |
| Cc1cc(CC(=O)N2C[C@@H](F)C[C@H]2CO[C@H]2CC[C@H](C(=O)O)CC2)ccc1Nc1nc2ccccc2o1 [Example 50, trans-4-(1-(4-(2-Benzoxazolyl)amino-3-methylphenylacetyl)-(4S)-fluoro-(2S)-pyrrolidinylmethoxy)cyclohexanecarboxylic acid] | 7.89 |
| Cc1cccc2oc(Nc3ccc(CC(=O)N4C[C@@H](F)C[C@H]4CO[C@H]4CC[C@H](C(=O)O)CC4)cc3Cl)nc12 [Example 52, trans-4-(1-(3-Chloro-4-(2-(4-methylbenzoxazolyl))aminophenylacetyl)-(4S)-fluoro-(2S)-pyrrolidinylmethoxy)cyclohexanecarboxylic acid] | 8.00 |
